In patent US9205046B2, “Enhanced stability of inverse thermal gelling composite hydrogels” (The Governing Council of the University of Toronto, priority 2005, dated 2015):
“Also recorded” adds a separate entry of the source.

Assays:
[1] = Drug diffusivity in HMW HAMC; assay type: physicochemical; conditions: in 2:3 HMW HAMC
Excerpt: The diffusivity of a given drug in HMW HAMC, D, was normalized to its diffusivity in water, Do, to determine the impact of HMW HAMC on molecular diffusion [N. A. Peppas, C. T. Reinhart, Solute diffusion in swollen membranes. 1. A new theory. J. Membr. Sci. 15 (3) (1983) 275-287. Approximations of D for NBQX, α-chymotrypsin, and IgG in HMW HAMC were estimated according to the one dimensional, unidirectional, thin film approximation for non-swelling samples at short times [J. Crank, The Mathematics of Diffusion, Clarendon Press, Oxford, 1956.]. Normalized diffusion coefficients were then determined with respect to previously reported values of Do according to:
[formula] Where Mt/M∞ is the cumulative mass of drug detected at time, t, divided by the total mass released and l is the sample thickness.
Approximately 100 mg of HAMC with a drug loading of 100-1000 μg/mL was deposited into a cylindrical sample tube to yield a gel with thickness of 0.3 cm and one exposed surface. Samples were warmed to 37° C. and combined with 900 μL of warm aCSF. The buffer was sampled with total replacement at 0.5, 1, 2, and 5 hours and analyzed and described below.

[2] = In vitro drug release from HAMC hydrogels and composites; assay type: physicochemical; conditions: for burst release from PLGA particles in composite versus free particles: composite 2:3 HMW HAMC
Description: Release profiles of each particle encapsulated drug were obtained by depositing approximately 150 mg of drug loaded 2:3 HMW HAMC into polypropylene sample tubes, warming to 37° C., and adding 600 μL warm aCSF. […] Particle loads were typically 30-40 mg PLGA per gram of composite. […] All sample aliquots were immediately frozen and stored at −20° C. until analysis. […] Each sample was thawed immediately prior to assay and clear supernatant analyzed for dissolved drug.

[3] = Characterization of drug loaded PLGA particles; assay type: physicochemical; conditions: laser diffraction or dynamic light scattering
Description: PLGA microparticle synthesis was optimized for each factor encapsulated and thus synthesis varied slightly for each factor, described below for EGF, dbcAMP, IgG and α-chymotrypsin. Microparticle size was determined by laser diffraction (Mastersizer 2000™, Malvern Instruments, Malvern, UK): nanoparticle size was determined by dynamic light scattering (Zetasizer Nano ZS™, Malvern Instruments). Encapsulation efficiency was defined as the fraction of drug detected per unit mass of particle compared to the theoretical maximum. Particle yield is the mass of recovered particulate PLGA adjusted for drug content, divided by the initial PLGA mass. Drug loading is the mass fraction of drug in the particles expressed as microgram of drug per milligram of particles.
EGF content was determined by degrading the PLGA in 1 M NaOH for 24 h at 37° C., centrifuging the resulting suspension and assaying the supernatant for total protein using the BCA assay.
dbcAMP content was determined by DCM/water solvent extraction. PLGA was dissolved in DCM and extracted 3×. Aqueous dbcAMP concentration was determined by UV absorbance at 273 nm on a Nanodrop ND-1000™ (Thermo Fisher Scientific).
Protein content was determined based on a method by Wong [Wong, H. M., Wang, J. J., and Wang, C, In Vitro Sustained Release of Human Immunoglobulin G from Biodegradable Microspheres. Ind. Eng. Chem. Res., 2001. 40: p. 933-948]. […]

[4] = test system: mature blood vessels in the dorsal horns of the injured spinal cord; experiment: Intrathecal FGF2 delivery with composite HAMC after compressive spinal cord injury, SMI-71 blood vessel count; assay type: in vivo, Sprague Dawley rats; conditions: rat, moderate compressive SCI at T2, 10 μl intrathecal composite 1:3 HMW HAMC with FGF2 PLGA nanoparticles, 28 days
Description: Physical hydrogel blends of hyaluronan (HA) and methyl cellulose (MC) were prepared in aCSF at 1 wt % 2600 kg/mol HA and 3 wt % 300 kg/mol MC as previously reported (1:3 HMW HAMC [M. D. Baumann, C. E. Kang, J. C. Stanwick, Y. Wang, H. Kim, Y. Lapitsky, and M. S. Shoichet, An injectable drug delivery platform for sustained combination therapy, J Control Release. (2009)]. Briefly, MC and HA were sequentially mechanically dispersed in aCSF and allowed to dissolve at 4° C. To form composite 1:3 HMW HAMC, slurries of particles were added together for a final concentration of 100 mg/mL. PLGA nanoparticles were prepared from a w/o/w double emulsion as previously described [[…]], either as blank nanoparticles or encapsulating FGF2.
All animal procedures were performed in accordance with the Guide to the Care and Use of Experimental Animals (Canadian Council on Animal Care) and protocols were approved by the Animal Care Committee of the Research Institute of the University Health Network. […] Blood vessels were then counted in the dorsal horns of the spinal cord (See FIG. 8). Statistical significance was determined by ANOVA followed by Tukey's post-hoc test.

## 2,3-Dioxo-6-nitro-1,2,3,4-tetrahydrobenzo[f]quinoxaline-7-sulfonamide disodium salt [NBQX, reference compound]
[1]
  normalized diffusion coefficient: ~0.1
[2]; dissolved in 2:3 HMW HAMC
  release mechanism of dissolved drug: diffusion limited

## CCCC(=O)Nc1ncnc2c1ncn2[C@@H]1O[C@@H]2COP(=O)([O-])O[C@H]2[C@H]1OC(=O)CCC.[Na+] [dbcAMP, N^6,2′-O-dibutyryladenosine 3′,5′-cyclic monophosphate sodium salt, reference compound]
[3]
  Particle Size (μm): 37 ± 14 μm
[2]; PLGA particles dispersed in composite 2:3 HMW HAMC
  duration of in vitro release of PLGA particle encapsulated drug: 28 days
[2]
  burst release from PLGA particles in composite versus free particles: reduction in burst release

## EGF: Recombinant human epidermal growth factor
[3]
  Particle Size (μm): 10 ± 2 μm
[2]
  burst release from PLGA particles in composite versus free particles: atypical behaviour

## FGF-2: Recombinant human basic fibroblast growth factor
[4]
  mature blood vessels in the dorsal horns (angiogenesis): results in angiogenesis; also recorded: enhanced blood vessels
[1]
  normalized diffusion coefficient: ~0.1
[2]; dissolved in 2:3 HMW HAMC
  release mechanism of dissolved drug: diffusion limited
[2]; dissolved in 2:3 HMW HAMC, aCSF, 37 °C
  time to complete in vitro release of dissolved drug: ≤ 4 days
